In article PMC8377144, “Retro-enantio isomer of angiopep-2 assists nanoprobes across the blood-brain barrier for targeted magnetic resonance/fluorescence imaging of glioblastoma” (Signal Transduction and Targeted Therapy, 2021):

Test system: in vitro BBB model (bEnd.3 cells cocultured with U87-MG cells)
Assay: NaFl permeability test of the in vitro BBB model (Transwell)
Type: in vitro ADME, mouse
Settings: bEnd.3 upper / U87-MG lower chamber, 3 µm polycarbonate, 0.33 cm^2, 200 µL NaFl 10 µg/mL upper, 900 µL PBS lower, 37 °C, sampling 30, 60, 90 min, microplate reader 485/535 nm
Protocol: Construction of the in vitro BBB model: U87-MG cells and bEnd.3 cells were initially cultured in high-glucose DMEM containing 10% FBS and 1% penicillin/streptomycin at 37 °C with 5% CO2. Moreover, a layer of a collagen solution was smeared on the inner side of the polycarbonate Transwell (3 µm mean pore size, 0.33 cm^2 surface area, Millipore, USA) and dried naturally on a clean bench for 30 min. Then, bEnd.3 cells were inoculated into the upper chamber of 24-well transwells units at a density of 5 × 10^4 cells per well. Two days later, U87-MG cells were inoculated into the lower chamber at a density of 1 × 10^5 cells per well and cocultured with bEnd.3 cells for one week.
Another test taken as an example from a previous study using sodium fluorescein (NaFl) was also introduced to evaluate in vitro BBB permeability.[44] […] The absorbance of standard solutions was obtained by a multidetection monochrometer microplate reader, and subsequently, a NaFl concentration-absorbance curve was made. With the help of the curve, we measured the in vitro BBB permeability with NaFl. […] Then, a multidetection monochrometer microplate reader (485/535 nm) was used to measure the amount of NaFl in the […]. The apparent permeability coefficient (Papp) was calculated as follows: […]

O=C([O-])c1ccccc1-c1c2ccc(=O)cc-2oc2cc([O-])ccc12.[Na+].[Na+] [NaFl, sodium fluorescein]
Papp of NaFl, BBB model group: 11.24 ± 0.73 × 10^−6 cm/s
